Test [1] concerns T. b. rhodesiense STIB 900 bloodstream forms. Also on record: method as in PMID 22331812, PMID 24080104, PMID 21624443, PMID 22396915. The following applies: cited from earlier work; for SI (Selectivity Index): IC50 against L6 cells divided by IC50 against STIB 900 strain, previously reported compounds; for IC50: previously reported compounds included for comparison, compound 9 tested once, read-out: T. brucei STIB 900 IC50.

Test [2] relates to rat skeletal myoblasts (L6-cells). Also on record: method as in PMID 22331812, PMID 24080104, PMID 21624443, PMID 22396915. The conditions noted are these: cytotoxicity; previously reported compounds included for comparison; cited from earlier work.
Test [3] concerns T. b. rhodesiense STIB 900 bloodstream forms. Kind of test: In vitro antitrypanosomal Alamar Blue assay. The conditions noted are these: for SI (Selectivity Index): IC50 against L6 cells divided by IC50 against STIB 900 strain; for IC50: read-out: T. brucei STIB 900 IC50. In kind it is cell-based, Trypanosoma brucei rhodesiense. On the procedure: Evaluation of in vitro antiprotozoal activity against T. b. rhodesiense was done using the Alamar Blue assay to determine IC50s as previously described. Serial threefold dilution were prepared in 96-well micro titre plates, and 4000 T. b. rhodesiense STIB 900 bloodstream forms in 50 μL were added to each well except for the negative controls. Melarsoprol (Arsobal®, purity > 95%, Sanofi-Aventis, Meyrin, Switzerland) was used as reference drugs. […] The IC50 values were calculated from the sigmoidal growth inhibition curves using Softmax Pro software (Molecular Devices).
On the technique in general: The colour change of resazurin is a common sign of viable cells or microbes.

Test [4] deals with rat skeletal myoblasts (L6-cells). Put plainly: cells. The conditions noted are these: read-out: L6 cells IC50. In kind it is cell-based. On the procedure:
The cytotoxicity assay was performed with rat skeletal myoblasts (L6-cells) seeded in 100 μL RPMI 1640 in 96-well micro titre plates, using the Alamar Blue assay described above. After 24 h the medium was removed and replaced by 100 μL of fresh RPMI 1640 with serial threefold drug dilution. Podophyllotoxin (purity > 95%, Sigma-Aldrich) was used as a reference drug. After 70 h of incubation under a humidified 5% CO2 atmosphere, 10 μL of the Alamar blue marker (see above) was added to all wells. The plates were incubated for an additional 2 h. A Spectramax Gemini XS micro plate fluorescence reader (Molecular Devices) was used to read the plates using an excitation wavelength of 536 nm and an emission wavelength of 588 nm. The IC50s were calculated from the sigmoidal growth inhibition curves using Softmax Pro software (Molecular Devices).

The mark [5] stands for this setting: Trypanosoma brucei, 70 h, 70 h incubation, average of three independent assays.
Where [6] appears, read: Rattus norvegicus, L6, 70 h, cytotoxicity, 70 h incubation, average of three independent assays.
Where [7] appears, read: 70 h incubation, average of three independent assays.
Setting [8] is: Trypanosoma brucei, 70 h incubation, average of three independent assays.
The mark [9] stands for this setting: Rattus norvegicus, L6, cytotoxicity, 70 h incubation, average of three independent assays.

Where two headings read alike, the source gives them in different places.

For `C=C(CO)C(=O)O[C@H]1C/C(C)=C\CC/C(CO)=C\[C@H]2OC(=O)C(=C)[C@H]12` [Compound 2, Onopordopicrin], in test [1], the “SI (Selectivity Index)” value is on record as 8.2 and the IC50 (as a rule, the midpoint of a concentration-inhibition curve) was 0.4 ± 0.01 µM. Further, the IC50 in test [2] was 3.1 ± 1.1 µM.
Regarding `C=C1C(=O)O[C@@H]2/C=C(\CO)CC/C=C(\C)C[C@H](OC(=O)C(=C)[C@H](O)CO)[C@@H]12` [Compound 3, Cnicin], the “SI (Selectivity Index)” value in test [3] is recorded as 10. The IC50 turned out to be 0.4 ± 0.1 µM in test [3] (setting [5]) and 4.2 ± 0.9 µM in test [4] (setting [6]).
Taken in the same sequence, the figures for `C=C[C@@]12COC(=O)C(=C)[C@@H]1[C@H]1OC(=O)C(=C)[C@@H]1[C@@H](OC(=O)C(=C)CO)C2` [Compound 4, Vernodalin] were 3, 0.2 ± 0.01 µM and 0.6 ± 0.02 µM.
`C=C1CC[C@H]2C(=C)CC[C@H]3C(=C)C(=O)O[C@@H]3[C@@H]12` [Compound 6, dehydrocostuslactone]: in test [1], the “SI (Selectivity Index)” value is reported as 1.9 and the IC50 was 4.4 ± 1.2 µM. Moreover, in test [2], the IC50 is 8.3 ± 1.9 µM.
Consider `C=C1C(=O)O[C@@H]2/C=C(\C)CC/C=C(\C)CC[C@@H]12` [Compound 7, costunolide], for which, in test [1], the “SI (Selectivity Index)” value was 5.9 and the IC50 was 1.3 ± 0.4 µM. Moreover, in test [2], the IC50 is 7.7 ± 1.3 µM.
Regarding `C=C1C(=O)OC2C3=C(C)C(=O)CC3C(C)(OC(C)=O)CCC12` (stereo not drawn) [Compound 10], the IC50 in test [3] (setting [7]) is 0.6 ± 0.2 µM; in test [3] (setting [5]), 0.7 µM; in test [4] (setting [6]) it was 4.3 ± 0.5 µM. For the same compound, in test [3], the “SI (Selectivity Index)” value turned out to be 7.6.
Take `C=C1C(=O)O[C@@H]2[C@H]1CC[C@H](C)[C@]1(CCC(=O)O1)[C@@]2(C)O` [Compound 11, Psilostachyin A]: the “SI (Selectivity Index)” value in test [3] amounted to 1.2. In addition, the IC50 in test [3] (setting [5]) turned out to be 5.8 ± 0.7 µM; in test [4] (setting [6]), 6.9 ± 1.8 µM.
As for `C=C1C(=O)O[C@@H]2/C=C(/C)[C@@H](O)C/C=C(\C)C[C@H](OC(=O)/C(C)=C\C)[C@@H]12` [Compound 14, Nobilin], in test [4] (Rattus norvegicus, L6, 70 h), the IC50 turned out to be 10.5 ± 0.1 µM.
Take `CC1=C2C3OC(=O)C(C)C3CCC(C)(O)C2CC1O` (stereo not drawn) [Compound 15, 3-Hydroxyisophotosantonin]: in test [3], the “SI (Selectivity Index)” value is 6.4. Also, the IC50 in test [3] (setting [5]) amounted to 54.7 ± 8 µM; in test [4] (setting [6]), 353 ± 4 µM.
Turning to `CC(=O)OC1(C)CCC2C(C)C(=O)OC2C2=C(C)C(=O)CC21` (stereo not drawn) [Compound 16], the IC50 in test [3] (setting [7]) is 45.7 ± 5 µM; in test [3] (setting [5]), 46 µM; in test [4] (setting [6]), above 292 µM. The “SI (Selectivity Index)” value in test [3] is recorded as above 6.4.
As for `CC1=C2[C@H]3OC(=O)[C@@H](C)[C@@H]3CC[C@@]2(C)C=CC1=O` [Compound 17, Santonin], the “SI (Selectivity Index)” value in test [3] is listed as above 8.8. The figures for the IC50 in test [3] (setting [8]) and in test [4] (setting [9]) were 41.5 ± 0.8 µM and above 366 µM, respectively.
The like results for `CC1C(=O)OC2C1CCC1(C)C=CC(=O)C(C)C21` (stereo not drawn) [Compound 18] were, in that order, 2.6, 12.9 ± 2.4 µM and 34 ± 1.5 µM.
As for `C=C1CC(O)C2C(CN(C)C)C(=O)OC2C2C(=C)C(O)CC12` (stereo not drawn) [Compound 20, Deacylcynaropicrin dimethylamine adduct], the “SI (Selectivity Index)” value in test [3] amounted to 2.5. Also, the IC50 is 3.6 ± 1 µM in test [3] (setting [5]) and 8.6 ± 1.3 µM in test [4] (setting [6]).
The like results for `CCN(CC)CC1C(=O)OC2C3=C(C)C(=O)CC3C(C)(O)CCC12` (stereo not drawn) [Compound 21, Deacylated diethylamine adduct] were, in that order, 2.2, 4.2 ± 0.8 µM and 9.4 ± 2.2 µM.
The like results for `CC(=O)OC1(C)CCC2C(CN3CCOCC3)C(=O)OC2C2=C(C)C(=O)CC21` (stereo not drawn) [Compound 22, Morpholine adduct] were, in that order, 10.3, 0.7 ± 0.1 µM and 7.4 ± 0.8 µM.
Taken in the same sequence, the figures for `CC1C(=O)CCC2(C)CCC3C(CN4CCOCC4)C(=O)OC3C12` (stereo not drawn) [Compound 23, Morpholine adduct] were 5.6, 11.8 ± 2.7 µM and 65.6 ± 9.7 µM.
Turning to `CC1C(=O)C=CC2(C)CCC3C(CN4CCOCC4)C(=O)OC3C12` (stereo not drawn) [Compound 24, Morpholine adduct], the “SI (Selectivity Index)” value in test [3] worked out at 13.3. Also, the results for the 50% inhibitory concentration (IC50) in test [3] (setting [5]) and in test [4] (setting [6]) were 2.4 ± 0.7 µM and 31.3 ± 1.4 µM, respectively.
`CC12CCC3C(CN4CCOCC4)C(=O)OC3C13C=CC(=O)C23C` (stereo not drawn) [Compound 25, Morpholine adduct]: the “SI (Selectivity Index)” value in test [3] is on record as 3.8. The concentration for half-maximal inhibition (IC50) came to 2.6 ± 0.5 µM in test [3] (setting [5]) and 9.9 ± 1.6 µM in test [4] (setting [6]).
Taken in the same sequence, the figures for `CC1C(=O)C=CC2(C)CCC3C(CNCCc4ccc(O)cc4)C(=O)OC3C12` (stereo not drawn) [Compound 26, Tyramine adduct] were above 35.0, 6.7 ± 1.3 µM and above 236 µM.
Taken in the same sequence, the figures for `CC1C(=O)CCC2(C)CCC3C(CNCCc4ccc(O)cc4)C(=O)OC3C12` (stereo not drawn) [Compound 27, Tyramine adduct] were 4, 13 ± 1.4 µM and 45.6 ± 3.2 µM.
The like results for `CC1=C2C3OC(=O)C(CNCCc4ccc(O)cc4)C3CCC2(C)C=CC1=O` (stereo not drawn) [Compound 28, Tyramine adduct] were, in that order, 6.5, 13.4 ± 1.1 µM and 87.9 ± 2.2 µM.
As for `CC(=O)OC1(C)CCC2C(CNCCc3ccc(O)cc3)C(=O)OC2C2=C(C)C(=O)CC21` (stereo not drawn) [Compound 29, Tyramine adduct], the “SI (Selectivity Index)” value in test [3] is reported as 3.3. Further, the IC50 in test [3] (setting [5]) was found to be 6.6 ± 0.7 µM; in test [4] (setting [6]), 22.1 ± 4 µM.
In the case of `CC12CCC3C(CNCCc4ccc(O)cc4)C(=O)OC3C13C=CC(=O)C23C` (stereo not drawn) [Compound 30, Tyramine adduct], the “SI (Selectivity Index)” value in test [3] was found to be 3.2. Besides, the IC50 in test [3] (setting [5]) turned out to be 9.9 ± 1.6 µM; in test [4] (setting [6]), 31.8 ± 1.3 µM.
Consider `CC1=C2C3OC(=O)C(CN4CCN(c5ccccc5Cl)CC4)C3CCC2(C)C=CC1=O` (stereo not drawn) [Compound 31, 1-(2-Chlorophenyl)piperazine adduct], for which the IC50 in test [3] (setting [7]) is 7 ± 2.2 µM; in test [3] (setting [5]), above 5 µM; in test [4] (setting [6]), above 20 µM; in test [4] (cytotoxicity, 70 h incubation, average of three independent assays) it was 21.8 ± 2.7 µM. The “SI (Selectivity Index)” value in test [3] amounted to 3.1.
On to `CC1=C2C3OC(=O)C(CNCc4ccc(Cl)cc4)C3CCC2(C)C=CC1=O` (stereo not drawn) [Compound 32, 4-Chlorobenzylamine adduct], for which the “SI (Selectivity Index)” value in test [3] turned out to be 3.4. The IC50 in test [3] (setting [5]) is 10.6 ± 1.5 µM; in test [4] (setting [6]) it was 34.8 ± 1.2 µM.
Taken in the same sequence, the figures for `CC12CCC3C(CNCCc4ccc(Cl)cc4)C(=O)OC3C13C=CC(=O)C23C` (stereo not drawn) [Compound 33, 2-(4-Chlorophenyl)ethylamine adduct] were 2.7, 10.2 ± 3.2 µM and 27.6 ± 6.7 µM.
For `CC(=O)OC1(C)CCC2C(CNCCc3ccc(Cl)cc3)C(=O)OC2C2=C(C)C(=O)CC21` (stereo not drawn) [Compound 34, 2-(4-Chlorophenyl)ethylamine adduct], in test [3], the “SI (Selectivity Index)” value is on record as 4.2. The IC50 in test [3] (setting [5]) amounted to 5.4 ± 1.1 µM; in test [4] (setting [6]), 22.5 ± 1.6 µM.
For `Nc1nc(N)nc(Nc2ccc([As]3SCC(CO)S3)cc2)n1` (stereo not drawn) [Melarsoprol, reference compound], the “SI (Selectivity Index)” value in test [3] came to 2170. In addition, the IC50 in test [3] (Trypanosoma brucei, 70 h) came to 0.01 ± 0.01 µM; in test [4] (Rattus norvegicus, L6, 70 h), 21.7 ± 8.7 µM.
With `COc1cc([C@@H]2c3cc4c(cc3[C@H](O)[C@H]3COC(=O)[C@H]23)OCO4)cc(OC)c1OC` [Podophyllotoxin, reference compound], in test [4] (Rattus norvegicus, L6, 70 h), the IC50 is 0.02 ± 0.01 µM.

The values above are taken from paper PMC6271975, “Structure-Activity Relationship Study of Sesquiterpene Lactones and Their Semi-Synthetic Amino Derivatives as Potential Antitrypanosomal Products” (Molecules, 2014).
